This note sets out measurements from paper PMC3694885, “Activity of Bradykinin B2 Receptor Is Regulated by Long-Chain Polyunsaturated Fatty Acids” (PLoS ONE, 2013).

The assay addresses T1, bradykinin B2 receptor (B2R) (Homo sapiens, UniProt P30411).
T1 construct: gene BDKRB2; B2R transfected in HEK293 cells
T1 sequence (P30411 1-391): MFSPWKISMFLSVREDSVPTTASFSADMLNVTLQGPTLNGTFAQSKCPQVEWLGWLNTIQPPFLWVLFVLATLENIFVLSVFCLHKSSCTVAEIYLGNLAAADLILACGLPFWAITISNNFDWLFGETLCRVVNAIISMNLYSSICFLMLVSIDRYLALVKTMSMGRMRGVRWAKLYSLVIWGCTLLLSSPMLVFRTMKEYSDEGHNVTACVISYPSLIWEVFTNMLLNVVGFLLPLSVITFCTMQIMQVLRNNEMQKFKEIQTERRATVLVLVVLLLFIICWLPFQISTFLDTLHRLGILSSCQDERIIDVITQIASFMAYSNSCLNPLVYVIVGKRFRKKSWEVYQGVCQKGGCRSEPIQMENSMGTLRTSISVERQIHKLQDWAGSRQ
Kind of assay: B2R-dependent ERK phosphorylation in transfected HEK293, blocked by the B2R antagonist HOE-140. Format: cell-based.

`CC/C=C\C/C=C\C/C=C\C/C=C\C/C=C\C/C=C\CCC(=O)O` [DHA, docosahexaenoic acid]: the “B2R-dependent ERK phosphorylation in transfected HEK293, blocked by the B2R anta” value is reported as “EPA or DHA dependent ERK phosphorylation was inhibited by the selective B2R antagonist”.
